Data from US20250041624A1, “METHOD FOR ENHANCING ACTIVITY OF PHOTOSENSITIZER BY MAGNETIC FIELD” (PEKING UNIVERSITY, priority 2021, published 2025).

Key:
HeLa xenograft tumor = HeLa xenograft tumor growth in BALB/c nude mice with photodynamic treatment and magnetic field; assay type: in vivo; conditions: RB 1.0 mg/kg intratumoral, 14 days
Experimental: Twenty-four five-weeks old female BALB/c nude mice are selected, 1×10^6 HeLa cells (in 200 μL 0.01 mol/L PBS buffer) are inoculated subcutaneously into the dorsal right flank of each mouse, and a xenograft tumor model is established (Five-weeks old female BALB/c nude mice are obtained from Beijing Agronomy and housed under standard environmental conditions. All animal procedures are approved by Beijing Agronomy Animal Care and Use Committee). After tumors growing up, 25 μL RB (1.0 mg/kg) or an equal volume of PBS buffer at a concentration of 0.01 mol/L are injected intratumorally.
The treatment conditions for dividing the mice into 8 groups (3 mice each) are as follows: • (1) Injection of PBS buffer-no light-no magnetic field (PBS-dark-0mT); • (2) Injection of PBS buffer-light-no magnetic field (PBS-light-0mT); • (3) Injection of PBS buffer-light-250mT magnetic field (PBS-light-250mT); • (4) Injection of PBS Buffer-Light-800mT magnetic field (PBS-light-800mT); • (5) RB-light-no magnetic field (RB-light-0mT) injection (RB-light-0mT); • (6) Injection of RB-light-100mT magnetic field (RB-light-100mT); • (7) Injection of RB-light-250mT magnetic field (RB-light-250mT); • (8) Inject RB-light-800mT magnetic field (RB-light-800mT).
All groups except group (1) receive light 5 min after injection at wavelength of 400-700 nm and power of 100 mW·cm^−2 and light time of 10 min. The tumor area of mice in groups (3), (4) and (6)-(8) are exposed to static magnetic field by using electromagnet during light exposure.
Test (one): Tumor size is monitored with digital calipers every other day for the following 14 days (peripheral measurements of tumors are performed […]), and tumors are calculated by Volume=Length×Width×[…]. Results for groups (2), (4), (5), (7), (8) are shown in FIG. 16, in which, ** is statistical probability p<0.01; *** is p<0.005, p<0.05 is considered significant. Each group is sacrificed 3 mice on day 14 post-injection, tumor tissues are collected for photographing and weighing, and tumor tissues are removed from groups (2), (3), (4), (5), (7), (8) as shown in FIG. 17; the rate of mass change of the tumor tissue in groups (5), (7), (8) is shown in FIG. 18, and the rate of mass change is (ωB−ω0)/ω0×100%, where ωB is the tumor mass under magnetic field conditions and ω0 is the tumor mass in group (5).

[1] = Singlet oxygen quantum yield and lifetime (1270 nm phosphorescence in D2O) under magnetic field; assay type: physicochemical; conditions: for τΔ (lifetime of singlet oxygen): RB 10 μmol/L in D2O
Experimental: (4) Singlet oxygen (^1O2), quantum yield (ΦΔ) and lifetime (τΔ) are measured by the following experiment. The phosphorescence of singlet oxygen (^1O2) generated at 1270 nm is determined in air saturated D2O solution of RB (10 μmol/L). The solution is excited at 561 nm.
The magnetic field effect MFs (ΦΔ,B) is calculated by the following formula: ΦΔ,B=ΦΔ,0×(IB/I0), where IB and I0 are peak areas of emission peaks at a magnetic field strength of B and without magnetic field strength, respectively.
The change rate of the magnetic field effect is:
The lifetime (τΔ) of singlet oxygen (^1O2) is affected by the magnetic field effect is as follows: […]

SMILES: O=C1OC2(c3cc(I)c(O)c(I)c3Oc3c2cc(I)c(O)c3I)c2c(Cl)c(Cl)c(Cl)c(Cl)c21 [RB, Rose Bengal]
- tumor growth (volume and mass) (HeLa xenograft tumor; group (5) RB-light-0mT, 400-700 nm 100 mW·cm−2 10 min): inhibition of tumor growth
- magnetic field effect on tumor growth (HeLa xenograft tumor; group (6) RB-light-100mT): no significant effect on tumor growth
- tumor growth (volume and mass) (HeLa xenograft tumor; group (7) RB-light-250mT): further inhibition of tumor growth
- magnetic field effect on tumor growth (HeLa xenograft tumor; group (8) RB-light-800mT): no significant effect on tumor growth
- τΔ (lifetime of singlet oxygen) ([1]; MF 0 mT): 66.7 ± 2.8 μs
- τΔ (lifetime of singlet oxygen) ([1]; MF 30 mT): 65.8 ± 7.1 μs
- τΔ (lifetime of singlet oxygen) ([1]; MF 50 mT): 60.7 ± 2.0 μs
- τΔ (lifetime of singlet oxygen) ([1]; MF 90 mT): 62.6 ± 3.2 μs
- τΔ (lifetime of singlet oxygen) ([1]; MF 120 mT): 69.5 ± 4.7 μs
- τΔ (lifetime of singlet oxygen) ([1]; MF 150 mT): 62.8 ± 0.8 μs
- τΔ (lifetime of singlet oxygen) ([1]; MF 200 mT): 65.4 ± 4.5 μs
- rate of change of luminescence quantum yield of 1O2 ([1]; RB 10 μmol/L in air saturated D2O, excited at 561 nm, with increasing magnetic field, FIG. 21): −5% to +10%
